Measured values published in ChEMBL document CHEMBL3991601, “The target landscape of clinical kinase drugs” (Science, 2017).
The source made the active and inactive calls. Cut-off read from the data, not from the text of the source, for most assays here: actives have a measured Kd and inactives only a lower limit.

Legend:
[1] = target: T1, Glycogen phosphorylase, liver form (Homo sapiens, UniProt P06737); format: subcellular, K-562, COLO 205, SK-N-BE(2) and MV-4-11, Cell lysate; conditions: read-out: Kd apparent
T1 sequence (P06737 whole entry): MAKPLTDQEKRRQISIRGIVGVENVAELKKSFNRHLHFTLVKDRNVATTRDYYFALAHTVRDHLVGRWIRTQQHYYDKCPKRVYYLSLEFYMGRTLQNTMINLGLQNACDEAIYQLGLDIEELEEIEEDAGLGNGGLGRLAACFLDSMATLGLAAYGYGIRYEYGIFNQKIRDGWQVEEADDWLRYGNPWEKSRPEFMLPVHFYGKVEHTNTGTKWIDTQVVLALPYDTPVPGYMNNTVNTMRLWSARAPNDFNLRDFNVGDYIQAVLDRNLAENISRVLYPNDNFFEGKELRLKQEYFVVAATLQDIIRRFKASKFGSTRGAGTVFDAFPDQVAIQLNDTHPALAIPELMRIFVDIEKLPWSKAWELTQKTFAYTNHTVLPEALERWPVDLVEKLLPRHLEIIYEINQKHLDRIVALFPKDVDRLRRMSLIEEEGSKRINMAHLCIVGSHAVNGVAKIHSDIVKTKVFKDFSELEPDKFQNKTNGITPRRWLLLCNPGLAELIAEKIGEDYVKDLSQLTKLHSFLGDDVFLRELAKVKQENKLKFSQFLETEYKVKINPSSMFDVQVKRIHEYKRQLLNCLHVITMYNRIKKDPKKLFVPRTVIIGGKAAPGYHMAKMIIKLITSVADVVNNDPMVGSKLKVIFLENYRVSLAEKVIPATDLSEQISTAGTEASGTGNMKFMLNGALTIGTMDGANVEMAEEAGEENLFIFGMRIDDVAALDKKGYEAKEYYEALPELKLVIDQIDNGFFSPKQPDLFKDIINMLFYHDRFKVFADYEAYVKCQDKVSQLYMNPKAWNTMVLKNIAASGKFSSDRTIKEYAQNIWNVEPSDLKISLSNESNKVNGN

[2] = target: AP2-associated protein kinase 1 (Homo sapiens, UniProt Q2M2I8)
Chain of AP2-associated protein kinase 1 (Q2M2I8 whole entry): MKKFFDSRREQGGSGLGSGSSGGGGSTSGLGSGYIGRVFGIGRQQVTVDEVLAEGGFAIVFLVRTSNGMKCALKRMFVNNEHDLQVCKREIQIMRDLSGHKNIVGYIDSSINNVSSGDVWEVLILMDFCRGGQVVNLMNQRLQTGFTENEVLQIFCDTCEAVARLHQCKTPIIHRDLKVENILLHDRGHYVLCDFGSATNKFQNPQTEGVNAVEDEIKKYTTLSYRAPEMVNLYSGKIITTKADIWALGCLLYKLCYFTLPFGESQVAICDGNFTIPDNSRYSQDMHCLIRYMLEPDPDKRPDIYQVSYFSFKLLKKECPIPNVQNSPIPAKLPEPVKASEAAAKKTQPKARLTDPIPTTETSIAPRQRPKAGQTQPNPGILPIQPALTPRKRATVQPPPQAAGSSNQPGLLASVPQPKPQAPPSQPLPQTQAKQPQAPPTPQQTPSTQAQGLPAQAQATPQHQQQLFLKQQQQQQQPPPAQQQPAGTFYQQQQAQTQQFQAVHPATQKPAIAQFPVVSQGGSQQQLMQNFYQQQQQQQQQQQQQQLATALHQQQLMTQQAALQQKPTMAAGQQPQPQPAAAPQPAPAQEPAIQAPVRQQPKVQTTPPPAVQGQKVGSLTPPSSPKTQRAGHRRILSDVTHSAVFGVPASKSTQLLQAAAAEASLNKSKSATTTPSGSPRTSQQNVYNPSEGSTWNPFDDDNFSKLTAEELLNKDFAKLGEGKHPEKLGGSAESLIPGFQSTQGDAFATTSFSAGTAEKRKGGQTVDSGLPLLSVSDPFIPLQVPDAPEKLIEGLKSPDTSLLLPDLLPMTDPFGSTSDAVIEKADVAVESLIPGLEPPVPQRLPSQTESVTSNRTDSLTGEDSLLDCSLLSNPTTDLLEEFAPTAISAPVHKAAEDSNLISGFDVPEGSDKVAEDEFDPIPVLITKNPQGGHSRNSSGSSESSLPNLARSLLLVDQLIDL

[3] = target: T2, Probable ATP-dependent RNA helicase DDX6 (Homo sapiens, UniProt P26196)
T2 sequence (P26196 whole entry): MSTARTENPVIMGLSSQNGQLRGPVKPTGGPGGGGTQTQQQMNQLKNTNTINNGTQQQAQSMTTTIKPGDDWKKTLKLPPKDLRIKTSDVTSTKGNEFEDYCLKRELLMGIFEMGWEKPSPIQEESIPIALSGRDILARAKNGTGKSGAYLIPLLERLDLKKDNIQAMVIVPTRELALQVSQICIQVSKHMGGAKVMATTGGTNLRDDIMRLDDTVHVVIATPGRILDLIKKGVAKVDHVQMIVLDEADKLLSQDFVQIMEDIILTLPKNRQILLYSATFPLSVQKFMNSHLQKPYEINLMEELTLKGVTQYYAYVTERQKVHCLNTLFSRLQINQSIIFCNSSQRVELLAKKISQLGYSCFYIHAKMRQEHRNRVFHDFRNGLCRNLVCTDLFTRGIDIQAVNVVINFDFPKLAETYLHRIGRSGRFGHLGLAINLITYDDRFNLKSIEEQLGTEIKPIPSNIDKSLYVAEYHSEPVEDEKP

[4] = target: Eukaryotic translation initiation factor 2-alpha kinase 1 (Homo sapiens, UniProt Q9BQI3)
Chain of Eukaryotic translation initiation factor 2-alpha kinase 1 (Q9BQI3 whole entry): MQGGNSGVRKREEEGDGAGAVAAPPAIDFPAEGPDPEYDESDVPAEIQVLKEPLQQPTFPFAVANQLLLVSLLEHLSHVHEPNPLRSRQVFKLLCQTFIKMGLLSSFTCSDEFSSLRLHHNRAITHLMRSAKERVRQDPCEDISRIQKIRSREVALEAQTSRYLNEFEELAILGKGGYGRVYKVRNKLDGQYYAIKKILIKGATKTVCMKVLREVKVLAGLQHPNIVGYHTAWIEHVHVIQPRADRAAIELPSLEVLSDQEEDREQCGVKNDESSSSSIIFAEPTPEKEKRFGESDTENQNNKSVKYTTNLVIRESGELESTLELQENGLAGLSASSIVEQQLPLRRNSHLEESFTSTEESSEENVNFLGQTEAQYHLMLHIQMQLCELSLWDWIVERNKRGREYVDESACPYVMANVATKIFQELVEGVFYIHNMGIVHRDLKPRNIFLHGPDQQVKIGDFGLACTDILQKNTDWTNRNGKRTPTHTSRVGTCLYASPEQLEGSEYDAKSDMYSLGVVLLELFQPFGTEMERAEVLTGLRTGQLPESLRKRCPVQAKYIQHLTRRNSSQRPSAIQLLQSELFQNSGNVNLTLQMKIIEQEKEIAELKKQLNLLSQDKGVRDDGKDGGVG

[5] = target: Tyrosine-protein kinase Lyn (Homo sapiens, UniProt P07948)
Chain of Tyrosine-protein kinase Lyn (P07948 whole entry): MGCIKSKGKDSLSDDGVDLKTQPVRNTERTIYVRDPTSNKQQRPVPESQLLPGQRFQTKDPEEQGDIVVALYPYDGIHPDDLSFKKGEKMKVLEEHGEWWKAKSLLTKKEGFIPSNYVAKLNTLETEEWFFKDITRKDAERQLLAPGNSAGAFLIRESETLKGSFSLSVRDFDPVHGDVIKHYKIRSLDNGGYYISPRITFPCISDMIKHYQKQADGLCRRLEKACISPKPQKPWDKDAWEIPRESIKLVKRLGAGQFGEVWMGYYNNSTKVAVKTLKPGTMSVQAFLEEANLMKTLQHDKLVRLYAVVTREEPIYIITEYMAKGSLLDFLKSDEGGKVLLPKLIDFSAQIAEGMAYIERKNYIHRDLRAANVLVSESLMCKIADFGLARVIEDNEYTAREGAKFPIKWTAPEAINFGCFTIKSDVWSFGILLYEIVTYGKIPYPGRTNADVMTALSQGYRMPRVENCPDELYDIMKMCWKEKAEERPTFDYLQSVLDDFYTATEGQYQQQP

[6] = target: T3, Mitogen-activated protein kinase kinase kinase 2 (Homo sapiens, UniProt Q9Y2U5)
T3 sequence (Q9Y2U5 whole entry): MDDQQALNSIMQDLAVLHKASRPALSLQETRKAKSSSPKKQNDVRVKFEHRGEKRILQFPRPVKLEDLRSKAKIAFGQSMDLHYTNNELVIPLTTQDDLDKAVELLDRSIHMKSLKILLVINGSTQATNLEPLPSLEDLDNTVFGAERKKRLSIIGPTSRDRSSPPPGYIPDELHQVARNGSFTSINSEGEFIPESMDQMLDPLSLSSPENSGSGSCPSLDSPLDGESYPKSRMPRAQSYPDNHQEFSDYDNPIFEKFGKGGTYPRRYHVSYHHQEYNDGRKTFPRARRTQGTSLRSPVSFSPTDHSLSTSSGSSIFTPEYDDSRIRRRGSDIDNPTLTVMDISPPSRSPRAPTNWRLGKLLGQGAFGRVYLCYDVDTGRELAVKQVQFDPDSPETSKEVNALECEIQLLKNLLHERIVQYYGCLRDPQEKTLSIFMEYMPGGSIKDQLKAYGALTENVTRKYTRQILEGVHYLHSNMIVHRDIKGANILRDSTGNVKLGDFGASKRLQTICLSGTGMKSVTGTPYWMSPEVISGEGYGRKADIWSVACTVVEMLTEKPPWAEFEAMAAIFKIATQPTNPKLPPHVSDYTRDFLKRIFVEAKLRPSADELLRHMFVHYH

[7] = target: MAP kinase-activated protein kinase 2 (Homo sapiens, UniProt P49137)
Chain of MAP kinase-activated protein kinase 2 (P49137 whole entry): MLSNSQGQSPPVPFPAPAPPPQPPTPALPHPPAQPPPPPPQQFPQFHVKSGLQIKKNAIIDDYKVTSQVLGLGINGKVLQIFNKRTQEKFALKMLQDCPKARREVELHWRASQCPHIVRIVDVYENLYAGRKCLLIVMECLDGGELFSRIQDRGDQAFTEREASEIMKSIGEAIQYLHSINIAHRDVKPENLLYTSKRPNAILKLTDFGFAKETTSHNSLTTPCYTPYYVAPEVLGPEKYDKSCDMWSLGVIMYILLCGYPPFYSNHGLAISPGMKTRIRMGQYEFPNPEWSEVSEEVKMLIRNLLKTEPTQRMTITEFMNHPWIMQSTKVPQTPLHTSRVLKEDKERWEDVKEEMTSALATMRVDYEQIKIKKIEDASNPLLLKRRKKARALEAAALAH

[8] = target: Protein kinase C delta type (Homo sapiens, UniProt Q05655)
Chain of Protein kinase C delta type (Q05655 whole entry): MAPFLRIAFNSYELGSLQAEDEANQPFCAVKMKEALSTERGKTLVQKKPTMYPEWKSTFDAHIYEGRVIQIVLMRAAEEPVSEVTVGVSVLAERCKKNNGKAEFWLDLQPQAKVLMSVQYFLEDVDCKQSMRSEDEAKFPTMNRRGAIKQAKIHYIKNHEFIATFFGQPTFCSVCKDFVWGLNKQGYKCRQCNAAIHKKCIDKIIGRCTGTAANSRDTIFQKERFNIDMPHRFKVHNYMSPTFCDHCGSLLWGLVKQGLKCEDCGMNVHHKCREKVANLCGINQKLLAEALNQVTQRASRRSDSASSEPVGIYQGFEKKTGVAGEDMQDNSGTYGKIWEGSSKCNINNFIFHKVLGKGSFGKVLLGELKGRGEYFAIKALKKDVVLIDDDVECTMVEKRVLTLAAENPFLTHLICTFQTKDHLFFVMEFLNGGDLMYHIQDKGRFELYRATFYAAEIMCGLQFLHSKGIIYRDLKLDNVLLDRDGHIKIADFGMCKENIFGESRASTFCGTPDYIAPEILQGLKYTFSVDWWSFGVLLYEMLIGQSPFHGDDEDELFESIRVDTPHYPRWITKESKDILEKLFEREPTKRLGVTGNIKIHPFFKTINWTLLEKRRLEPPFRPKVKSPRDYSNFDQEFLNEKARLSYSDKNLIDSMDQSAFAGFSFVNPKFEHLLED

[9] = target: Serine/threonine-protein kinase 10 (Homo sapiens, UniProt O94804)
Chain of Serine/threonine-protein kinase 10 (O94804 whole entry): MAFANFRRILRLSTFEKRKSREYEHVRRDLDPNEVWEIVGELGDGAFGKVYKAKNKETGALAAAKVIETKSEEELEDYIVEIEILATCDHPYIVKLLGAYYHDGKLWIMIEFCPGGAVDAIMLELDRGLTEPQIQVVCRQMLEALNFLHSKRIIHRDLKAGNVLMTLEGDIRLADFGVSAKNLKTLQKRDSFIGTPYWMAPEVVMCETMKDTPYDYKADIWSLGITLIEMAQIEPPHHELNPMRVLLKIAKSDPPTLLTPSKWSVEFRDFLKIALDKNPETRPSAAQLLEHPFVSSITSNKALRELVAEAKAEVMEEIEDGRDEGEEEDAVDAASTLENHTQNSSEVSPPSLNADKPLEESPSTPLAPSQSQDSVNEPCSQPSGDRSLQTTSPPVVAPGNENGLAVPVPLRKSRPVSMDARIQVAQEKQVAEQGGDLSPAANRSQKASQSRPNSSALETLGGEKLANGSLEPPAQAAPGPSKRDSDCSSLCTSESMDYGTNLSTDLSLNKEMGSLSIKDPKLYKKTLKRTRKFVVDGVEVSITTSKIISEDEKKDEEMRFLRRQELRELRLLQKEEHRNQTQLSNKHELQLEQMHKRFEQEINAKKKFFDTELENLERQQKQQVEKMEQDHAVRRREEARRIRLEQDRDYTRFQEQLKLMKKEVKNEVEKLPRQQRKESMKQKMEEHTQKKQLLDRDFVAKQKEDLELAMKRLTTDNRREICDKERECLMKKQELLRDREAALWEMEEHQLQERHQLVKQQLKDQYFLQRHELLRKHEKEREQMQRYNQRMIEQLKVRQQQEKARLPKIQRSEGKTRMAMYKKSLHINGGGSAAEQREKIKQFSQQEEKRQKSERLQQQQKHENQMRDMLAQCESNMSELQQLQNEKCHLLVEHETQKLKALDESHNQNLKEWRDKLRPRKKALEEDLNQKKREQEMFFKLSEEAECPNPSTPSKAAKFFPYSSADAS

[10] = target: Serine/threonine-protein kinase 16 (Homo sapiens, UniProt O75716)
Chain of Serine/threonine-protein kinase 16 (O75716 whole entry): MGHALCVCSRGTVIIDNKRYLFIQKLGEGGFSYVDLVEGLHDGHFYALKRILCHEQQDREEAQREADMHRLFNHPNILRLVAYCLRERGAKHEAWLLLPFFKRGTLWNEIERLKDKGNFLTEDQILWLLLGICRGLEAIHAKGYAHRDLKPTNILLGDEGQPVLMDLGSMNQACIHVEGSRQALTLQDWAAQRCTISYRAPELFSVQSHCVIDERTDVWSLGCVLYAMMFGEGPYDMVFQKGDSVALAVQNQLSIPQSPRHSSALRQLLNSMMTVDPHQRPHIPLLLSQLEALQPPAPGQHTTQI
Note: in the data inactive means no Kd found up to 30 µM.

Structure (SMILES)	Kd [1]	Kd [2]	Kd [3]	Kd [4]	Kd [5]	Kd [6]	Kd [7]	Kd [8]	Kd [9]	Kd [10]
C[C@@H]1CN(Cc2ccc(F)cc2)[C@@H](C)CN1C(=O)c1cc2c(C(=O)C(=O)N(C)C)cn(C)c2cc1Cl [TALMAPIMOD]	> 30 µM (inactive)	> 30 µM (inactive)	> 30 µM (inactive)	> 30 µM (inactive)	> 30 µM (inactive)	> 30 µM (inactive)	0.019 µM	> 30 µM (inactive)	> 30 µM (inactive)	> 30 µM (inactive)
O=C1NC(=O)/C(=C/c2ccc3nccc(-c4ccncc4)c3c2)S1 [GSK-1059615]	> 30 µM (inactive)	0.035 µM (active)	> 30 µM (inactive)	> 30 µM (inactive)	> 30 µM (inactive)	> 30 µM (inactive)	> 30 µM (inactive)	> 30 µM (inactive)	0.317 µM (active)	> 30 µM (inactive)
Cn1cc(-c2ccc3nnc(C(F)(F)c4ccc5ncccc5c4)n3n2)cn1 [JNJ-38877605]	> 30 µM (inactive)	> 30 µM (inactive)	> 30 µM (inactive)	> 30 µM (inactive)	> 30 µM (inactive)	> 30 µM (inactive)	> 30 µM (inactive)	> 30 µM (inactive)	> 30 µM (inactive)	> 30 µM (inactive)
CO[C@H]1C[C@@H]2CC[C@@H](C)[C@@](O)(O2)C(=O)C(=O)N2CCCC[C@H]2C(=O)O[C@H]([C@H](C)C[C@@H]2CC[C@@H](OCCO)[C@H](OC)C2)CC(=O)[C@H](C)/C=C(\C)[C@@H](O)[C@@H](OC)C(=O)[C@H](C)C[C@H](C)/C=C/C=C/C=C/1C [EVEROLIMUS]	> 30 µM (inactive)	> 30 µM (inactive)	> 30 µM (inactive)	> 30 µM (inactive)	> 30 µM (inactive)	> 30 µM (inactive)	> 30 µM (inactive)	> 30 µM (inactive)	> 30 µM (inactive)	> 30 µM (inactive)
CC(C)Nc1cc(-c2c[nH]c(C(=O)N[C@H](CO)c3cccc(Cl)c3)c2)c(Cl)cn1 [ULIXERTINIB]	> 30 µM (inactive)	> 30 µM (inactive)	> 30 µM (inactive)	> 30 µM (inactive)	> 30 µM (inactive)	> 30 µM (inactive)	> 30 µM (inactive)	> 30 µM (inactive)	> 30 µM (inactive)	> 30 µM (inactive)
Cc1ccc(-n2nc(C(C)(C)C)cc2NC(=O)NCc2cc(F)ccc2Oc2ccc3c(cnn3CCO)c2)cc1 [PEXMETINIB]	> 30 µM (inactive)	> 30 µM (inactive)	> 30 µM (inactive)	> 30 µM (inactive)	2.5 µM (active)	> 30 µM (inactive)	0.067 µM (active)	> 30 µM (inactive)	> 30 µM (inactive)	> 30 µM (inactive)
OCCn1cc(-c2cnc3nnn(Cc4ccc5ncccc5c4)c3n2)cn1 [PF-04217903]	> 30 µM (inactive)	> 30 µM (inactive)	> 30 µM (inactive)	> 30 µM (inactive)	> 30 µM (inactive)	> 30 µM (inactive)	> 30 µM (inactive)	> 30 µM (inactive)	> 30 µM (inactive)	> 30 µM (inactive)
CC(=O)Nc1cccc(-n2c(=O)n(C3CC3)c(=O)c3c(Nc4ccc(I)cc4F)n(C)c(=O)c(C)c32)c1 [TRAMETINIB]	> 30 µM (inactive)	> 30 µM (inactive)	> 30 µM (inactive)	> 30 µM (inactive)	> 30 µM (inactive)	> 30 µM (inactive)	> 30 µM (inactive)	> 30 µM (inactive)	> 30 µM (inactive)	> 30 µM (inactive)
COC(=O)N[C@@H](C)CNc1nccc(-c2cn(C(C)C)nc2-c2cc(Cl)cc(NS(C)(=O)=O)c2F)n1 [ENCORAFENIB]	> 30 µM (inactive)	> 30 µM (inactive)	> 30 µM (inactive)	> 30 µM (inactive)	> 30 µM (inactive)	> 30 µM (inactive)	14.7 µM (active)	> 30 µM (inactive)	> 30 µM (inactive)	> 30 µM (inactive)
O=C(Nc1ccc(-c2ccnc(Nc3ccc(N4CCOCC4)cc3)n2)cc1)C1CCCN1 (stereo not given) [XL-019]	> 30 µM (inactive)	0.006 µM (active)	> 30 µM (inactive)	> 30 µM (inactive)	> 30 µM (inactive)	> 30 µM (inactive)	0.354 µM (active)	> 30 µM (inactive)	> 30 µM (inactive)	> 30 µM (inactive)
CCn1c(=O)c(-c2cc[nH]n2)cc2c(C)nc(N)nc21 [VOXTALISIB]	> 30 µM (inactive)	> 30 µM (inactive)	> 30 µM (inactive)	> 30 µM (inactive)	> 30 µM (inactive)	> 30 µM (inactive)	> 30 µM (inactive)	> 30 µM (inactive)	> 30 µM (inactive)	> 30 µM (inactive)
Cc1ccc(NC(=O)c2ccc(CN3CC[C@H](N(C)C)C3)c(C(F)(F)F)c2)cc1Nc1nccc(-c2cncnc2)n1 [BAFETINIB]	> 30 µM (inactive)	> 30 µM (inactive)	> 30 µM (inactive)	> 30 µM (inactive)	0.239 µM (active)	> 30 µM (inactive)	0.304 µM (active)	> 30 µM (inactive)	> 30 µM (inactive)	> 30 µM (inactive)
COc1ccc(-c2ccc3c(N4CCOC[C@@H]4C)nc(N4CCOC[C@@H]4C)nc3n2)cc1CO [AZD-8055]	> 30 µM (inactive)	> 30 µM (inactive)	> 30 µM (inactive)	> 30 µM (inactive)	> 30 µM (inactive)	> 30 µM (inactive)	> 30 µM (inactive)	> 30 µM (inactive)	> 30 µM (inactive)	> 30 µM (inactive)
Cn1cc(-c2ccc(F)c(C(F)(F)F)c2)nc1C1CCN(c2ncnc3[nH]ncc23)CC1 [LY-2584702]	> 30 µM (inactive)	> 30 µM (inactive)	> 30 µM (inactive)	> 30 µM (inactive)	> 30 µM (inactive)	> 30 µM (inactive)	> 30 µM (inactive)	> 30 µM (inactive)	> 30 µM (inactive)	> 30 µM (inactive)
N[C@@H]1CCCN(c2c(/C=C3\SC(=O)NC3=O)cccc2-c2ccccc2)C1	> 30 µM (inactive)	> 30 µM (inactive)	> 30 µM (inactive)	> 30 µM (inactive)	> 30 µM (inactive)	> 30 µM (inactive)	> 30 µM (inactive)	> 30 µM (inactive)	> 30 µM (inactive)	> 30 µM (inactive)
